Laboratory results as given in ChEMBL document CHEMBL3885881, “DrugMatrix”.

Organism: Rattus norvegicus
Assay: DrugMatrix - Regimen: Daily Repeat
Type: toxicity, organism-based, Sprague-Dawley
Set-up: regimen Daily Repeat, gender Male, age 6-8 weeks
Details: in vivo, po, route oral GAVAGE, vehicle 100 % WATER; for ABSOLUTE BASOPHIL / ABSOLUTE EOSINOPHIL / ABSOLUTE LYMPHOCYTE / ABSOLUTE MONOCYTE / ABSOLUTE SEGMENTED NEUTROPHIL / BASOPHIL / EOSINOPHIL / ERYTHROCYTE COUNT / HEMATOCRIT / HEMOGLOBIN / LEUKOCYTE COUNT / LYMPHOCYTE / MEAN CORPUSCULAR HEMOGLOBIN / MEAN CORPUSCULAR HEMOGLOBIN CONCENTRATION / MEAN CORPUSCULAR VOLUME / MONOCYTE / NEUTROPHIL / NUCLEATED RED BLOOD CELLS / PLATELET COUNT: tissue Blood; for ALANINE AMINOTRANSFERASE / ALBUMIN / ALKALINE PHOSPHATASE / ASPARTATE AMINOTRANSFERASE / BLOOD UREA NITROGEN / CARBON DIOXIDE / CHLORIDE / CHOLESTEROL / CREATINE PHOSPHOKINASE / CREATININE / GLUCOSE / LACTATE DEHYDROGENASE / LIPASE / PHOSPHORUS / SODIUM / TOTAL BILIRUBIN / TOTAL PROTEIN / URIC ACID: tissue Plasma
[1] = 200 mg/kg, 120 h, dose level Low, time 5 day
[2] = 1100 mg/kg, 72 h, dose level High, time 3 day
[3] = 1100 mg/kg, 120 h, dose level High, time 5 day

SMILES: CC1(C)S[C@@H]2[C@H](NC(=O)[C@H](N)c3ccc(O)cc3)C(=O)N2[C@H]1C(=O)O [AMOXICILLIN]
- ABSOLUTE BASOPHIL [1]: 0 CELLS/uL
- ABSOLUTE EOSINOPHIL [1]: 0 CELLS/uL
- ABSOLUTE LYMPHOCYTE [1]: 6222 CELLS/uL
- ABSOLUTE MONOCYTE [1]: 124 CELLS/uL
- ABSOLUTE SEGMENTED NEUTROPHIL [1]: 487.33 CELLS/uL
- BASOPHIL [1]: 0%
- EOSINOPHIL [1]: 0%
- ERYTHROCYTE COUNT [1]: 5.52 x10E6/uL
- HEMATOCRIT [1]: 34.17%
- HEMOGLOBIN [1]: 13.17 G/DL
- LEUKOCYTE COUNT [1]: 6.83 x10E3/uL
- LYMPHOCYTE [1]: 90.67%
- MEAN CORPUSCULAR HEMOGLOBIN [1]: 23.87 pg
- MEAN CORPUSCULAR HEMOGLOBIN CONCENTRATION [1]: 38.53 G/DL
- MEAN CORPUSCULAR VOLUME [1]: 61.87 fL
- MONOCYTE [1]: 2%
- NEUTROPHIL [1]: 7.33%
- NUCLEATED RED BLOOD CELLS [1]: 0 /100WBC
- PLATELET COUNT [1]: 1169.67 x10E3/uL
- ALANINE AMINOTRANSFERASE [1]: 61.67 u/L
- ALBUMIN [1]: 4.07 G/DL
- ALKALINE PHOSPHATASE [1]: 419.67 u/L
- ASPARTATE AMINOTRANSFERASE [1]: 85.33 u/L
- BLOOD UREA NITROGEN [1]: 19 mg/dL
- CARBON DIOXIDE [1]: 35 mmol/L
- CHLORIDE [1]: 99.33 MEQ/L
- CHOLESTEROL [1]: 64.33 mg/dL
- CREATINE PHOSPHOKINASE [1]: 366.67 u/L
- CREATININE [1]: 0.22 mg/dL
- GLUCOSE [1]: 133.67 mg/dL
- LACTATE DEHYDROGENASE [1]: 112.33 u/L
- LIPASE [1]: 9 u/L
- PHOSPHORUS [1]: 11.07 mg/dL
- SODIUM [1]: 143.8 MEQ/L
- TOTAL BILIRUBIN [1]: 0.17 mg/dL
- TOTAL PROTEIN [1]: 6.17 G/DL
- URIC ACID [1]: 0.73 mg/dL
- ABSOLUTE BASOPHIL [2]: 0 CELLS/uL
- ABSOLUTE EOSINOPHIL [2]: 0 CELLS/uL
- ABSOLUTE LYMPHOCYTE [2]: 13682.33 CELLS/uL
- ABSOLUTE MONOCYTE [2]: 492.67 CELLS/uL
- ABSOLUTE SEGMENTED NEUTROPHIL [2]: 958.33 CELLS/uL
- BASOPHIL [2]: 0%
- EOSINOPHIL [2]: 0%
- ERYTHROCYTE COUNT [2]: 6.16 x10E6/uL
- HEMATOCRIT [2]: 39.43%
- HEMOGLOBIN [2]: 14.47 G/DL
- LEUKOCYTE COUNT [2]: 15.13 x10E3/uL
- LYMPHOCYTE [2]: 90%
- MEAN CORPUSCULAR HEMOGLOBIN [2]: 23.5 pg
- MEAN CORPUSCULAR HEMOGLOBIN CONCENTRATION [2]: 36.7 G/DL
- MEAN CORPUSCULAR VOLUME [2]: 64.03 fL
- MONOCYTE [2]: 3.33%
- NEUTROPHIL [2]: 6.67%
- NUCLEATED RED BLOOD CELLS [2]: 0 /100WBC
- PLATELET COUNT [2]: 1311.33 x10E3/uL
- ALANINE AMINOTRANSFERASE [2]: 52.33 u/L
- ALBUMIN [2]: 4.43 G/DL
- ALKALINE PHOSPHATASE [2]: 365.33 u/L
- ASPARTATE AMINOTRANSFERASE [2]: 83 u/L
- BLOOD UREA NITROGEN [2]: 16.33 mg/dL
- CARBON DIOXIDE [2]: 32 mmol/L
- CHLORIDE [2]: 101.33 MEQ/L
- CHOLESTEROL [2]: 79.67 mg/dL
- CREATINE PHOSPHOKINASE [2]: 343 u/L
- CREATININE [2]: 0.2 mg/dL
- GLUCOSE [2]: 138 mg/dL
- LACTATE DEHYDROGENASE [2]: 129.67 u/L
- LIPASE [2]: 9.33 u/L
- PHOSPHORUS [2]: 12.4 mg/dL
- SODIUM [2]: 142.9 MEQ/L
- TOTAL BILIRUBIN [2]: 0.17 mg/dL
- TOTAL PROTEIN [2]: 6.17 G/DL
- URIC ACID [2]: 2.13 mg/dL
- ABSOLUTE BASOPHIL [3]: 0 CELLS/uL
- ABSOLUTE EOSINOPHIL [3]: 0 CELLS/uL
- ABSOLUTE LYMPHOCYTE [3]: 7076 CELLS/uL
- ABSOLUTE MONOCYTE [3]: 76 CELLS/uL
- ABSOLUTE SEGMENTED NEUTROPHIL [3]: 448 CELLS/uL
- BASOPHIL [3]: 0%
- EOSINOPHIL [3]: 0%
- ERYTHROCYTE COUNT [3]: 6.01 x10E6/uL
- HEMATOCRIT [3]: 37.2%
- HEMOGLOBIN [3]: 14.1 G/DL
- LEUKOCYTE COUNT [3]: 7.6 x10E3/uL
- LYMPHOCYTE [3]: 92.33%
- MEAN CORPUSCULAR HEMOGLOBIN [3]: 23.5 pg
- MEAN CORPUSCULAR HEMOGLOBIN CONCENTRATION [3]: 37.9 G/DL
- MEAN CORPUSCULAR VOLUME [3]: 61.93 fL
- MONOCYTE [3]: 1%
- NEUTROPHIL [3]: 6.67%
- NUCLEATED RED BLOOD CELLS [3]: 0 /100WBC
- PLATELET COUNT [3]: 1145.67 x10E3/uL
- ALANINE AMINOTRANSFERASE [3]: 59.33 u/L
- ALBUMIN [3]: 4.43 G/DL
- ALKALINE PHOSPHATASE [3]: 434 u/L
- ASPARTATE AMINOTRANSFERASE [3]: 94.33 u/L
- BLOOD UREA NITROGEN [3]: 17.33 mg/dL
- CARBON DIOXIDE [3]: 33 mmol/L
- CHLORIDE [3]: 100.33 MEQ/L
- CHOLESTEROL [3]: 75 mg/dL
- CREATINE PHOSPHOKINASE [3]: 622.67 u/L
- CREATININE [3]: 0.12 mg/dL
- GLUCOSE [3]: 113 mg/dL
- LACTATE DEHYDROGENASE [3]: 161.33 u/L
- LIPASE [3]: 9 u/L
- PHOSPHORUS [3]: 10.27 mg/dL
- SODIUM [3]: 144.67 MEQ/L
- TOTAL BILIRUBIN [3]: 0.13 mg/dL
- TOTAL PROTEIN [3]: 5.67 G/DL
- URIC ACID [3]: 0.8 mg/dL
